Laboratory results: patent publication US11180573B2, “Extracellular matrix-producing composition using MAST4 gene and preparation method therefor” (priority 2017, dated 2021)

Test system: human primary chondrocytes
Experiment: TGF-β1 treatment of human primary chondrocytes, expression by RT-PCR and Western blotting
Assay type: cell-based
Procedure: In detail, the human primary chondrocytes of Example 4-1 were treated with TGF-β1, and an expression level thereof was measured by RT-PCR as in Examples 1-2 and 1-3 and Western blotting.

[1] = TGF-β1 5 ng/ml for 24 hours, 48 hours, or 72 hours, FIG. 9
[2] = co-treatment with TGF-β1 (5 ng/ml), compared with single treatment with TGF-β1, FIG. 9B

In the case of “TGF-β1: growth factor that reduces MAST4 expression in human chondrocytes”, the MAST4 expression [1] is reported as “suppressed” and the “expression of extracellular matrix factors” value [1] is reported as “increased”.

With `Cc1cccc(-c2[nH]c(CNc3ccccc3F)nc2-c2ccc3ncnn3c2)n1` [TEW-7197] the “Acan expression increased by TGF-β1” value [2] was “suppressed” and the “inhibitory effect on MAST4 expression (of TGF-β1)” value [2] was “decreased”.
